{"source": "patent US8586550B2", "about": "“Thiazole derivatives as SGLT2 inhibitors and pharmaceutical composition comprising same” (Green Cross Corporation, priority 2010, dated 2013)"}
{"biological_target": "T1, Human SGLT2 (hSGLT2) (Homo sapiens, UniProt P31639)", "T1 construct": "expressed in transfected cells", "T1 sequence (P31639 1-672)": "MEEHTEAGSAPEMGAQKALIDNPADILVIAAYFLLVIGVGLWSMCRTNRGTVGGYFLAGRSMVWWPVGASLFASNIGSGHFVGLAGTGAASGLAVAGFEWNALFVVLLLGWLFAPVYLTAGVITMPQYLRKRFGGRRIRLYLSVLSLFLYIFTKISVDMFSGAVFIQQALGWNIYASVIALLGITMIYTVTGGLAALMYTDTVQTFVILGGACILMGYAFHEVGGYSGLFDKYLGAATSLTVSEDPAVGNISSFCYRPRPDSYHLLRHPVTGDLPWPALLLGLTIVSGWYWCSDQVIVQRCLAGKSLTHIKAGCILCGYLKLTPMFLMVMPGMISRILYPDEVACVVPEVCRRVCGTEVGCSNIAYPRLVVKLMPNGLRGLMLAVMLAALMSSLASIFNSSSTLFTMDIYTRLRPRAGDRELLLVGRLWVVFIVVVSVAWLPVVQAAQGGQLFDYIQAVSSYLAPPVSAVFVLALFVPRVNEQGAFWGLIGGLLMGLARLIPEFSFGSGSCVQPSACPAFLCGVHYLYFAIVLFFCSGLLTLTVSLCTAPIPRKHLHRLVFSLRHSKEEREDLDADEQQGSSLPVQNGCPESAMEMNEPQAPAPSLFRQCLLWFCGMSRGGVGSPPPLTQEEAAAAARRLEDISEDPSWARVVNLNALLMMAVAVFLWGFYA", "assay": "Sodium-dependent glucose transport (14C-AMG uptake) assay in CHO cells stably expressing hSGLT2", "format": "cell-based", "settings": "CHO cells expressing hSGLT2, 14C-AMG uptake, 37° C. for 2 h; single determinations; read-out: hSGLT2 Inhibitory Activity IC50", "how_it_was_run": "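CHO cells stably expressing human SGLT2, preincubated 10 min at 37 °C in sodium-free choline buffer, then 2 h at 37 °C in Na+ buffer with 1 mM AMG plus 8 μM 14C-AMG and inhibitor. Washed cells counted by scintillation; IC50 by nonlinear regression.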", "units": {"IC50": "nM"}}
{"smiles": "Cc1cnc(Cc2cn([C@@H]3O[C@H](CO)[C@@H](O)[C@H](O)[C@H]3O)c3ccccc23)s1", "note": "[Example 132, (2R,3S,4S,5R,6R)-2-(Hydroxymethyl)-6-(3-((5-methylthiazol-2-yl)methyl)-1H-indol-1-yl)tetrahydro-2H-pyran-3,4,5-triol]", "IC50": 162}
{"smiles": "CCc1cnc(Cc2cn([C@@H]3O[C@H](CO)[C@@H](O)[C@H](O)[C@H]3O)c3ccccc23)s1", "note": "[Example 133, (2R,3R,4S,5S,6R)-2-(3-((5-Ethylthiazol-2-yl)methyl)-1H-indol-1-yl)-6-(hydroxymethyl)tetrahydro-2H-pyran-3,4,5-triol]", "IC50": 180}
{"smiles": "CCCc1cnc(Cc2cn([C@@H]3O[C@H](CO)[C@@H](O)[C@H](O)[C@H]3O)c3ccccc23)s1", "note": "[Example 134, (2R,3S,4S,5R,6R)-2-(Hydroxymethyl)-6-(3((5-propylthiazol-2-yl)methyl)-1H-indol-1-yl)tetrahydro-2H-pyran-3,4,5-triol]", "IC50": 108}
{"smiles": "CCCCc1cnc(Cc2cn([C@@H]3O[C@H](CO)[C@@H](O)[C@H](O)[C@H]3O)c3ccccc23)s1", "note": "[Example 135, (2R,3R,4S,5S,6R)-2-(3((5-Butylthiazol-2-yl)methyl)-1H-indol-1-yl)-6-(hydroxymethyl)tetrahydro-2H-pyran-3,4,5-triol]", "IC50": 123}
{"smiles": "CCCCCc1cnc(Cc2cn([C@@H]3O[C@H](CO)[C@@H](O)[C@H](O)[C@H]3O)c3ccccc23)s1", "note": "[Example 136, (2R,3S,4S,5R,6R)-2-(Hydroxymethyl)-6-(3-((5-pentylthiazol-2-yl)methyl)-1H-indol-1-yl)tetrahydro-2H-pyran-3,4,5-triol]", "IC50": 210}
{"smiles": "OC[C@H]1O[C@@H](c2cn(Cc3ncc(-c4ccccc4)s3)c3ccccc23)[C@H](O)[C@@H](O)[C@@H]1O", "note": "[Example 137, (2R,3S,4R,5R,6S)-2-(Hydroxymethyl)-6-(1-((5-phenylthiazol-2-yl)methyl)-1H-indol-3-yl)-tetrahydro-2H-pyran-3,4,5-triol]", "IC50": 124}
{"smiles": "Cc1ccc(S(=O)(=O)OC[C@H]2O[C@@H](c3ccc(Cl)c(Cc4ncc(-c5ccco5)s4)c3)[C@H](O)[C@@H](O)[C@@H]2O)cc1", "note": "[Example 138, ((2R,3S,4R,5R,6S)-6-(4-Chloro-3-((5-(furan-2-yl)thiazol-2-yl)methyl)phenyl)-3,4,5-trihydroxy-tetrahydro-2H-pyran-2-yl)methyl 4-methylbenzenesulfonate]", "IC50": 156}
{"smiles": "COC[C@H]1O[C@@H](c2ccc(Cl)c(Cc3ncc(-c4ccco4)s3)c2)[C@H](O)[C@@H](O)[C@@H]1O", "note": "[Example 139, (2S,3R,4R,5S,6R)-2-(4-Chloro-3-((5-(furan-2-yl)thiazol-2-yl)methyl)phenyl)-6-(methoxymethyl)-tetrahydro-2H-pyran-3,4,5-triol]", "IC50": 23.5}
{"smiles": "CCOC[C@H]1O[C@@H](c2ccc(Cl)c(Cc3ncc(-c4ccco4)s3)c2)[C@H](O)[C@@H](O)[C@@H]1O", "note": "[Example 140, (2S,3R,4R,5S,6R)-2-(4-Chloro-3-((5-(furan-2-yl)thiazol-2-yl)methyl)phenyl)-6-(ethoxymethyl)tetrahydro-2H-pyran-3,4,5-triol]", "IC50": 68.7}
{"smiles": "OCCOC[C@H]1O[C@@H](c2ccc(Cl)c(Cc3ncc(-c4ccco4)s3)c2)[C@H](O)[C@@H](O)[C@@H]1O", "note": "[Example 141, (2S,3R,4R,5S,6R)-2-(4-Chloro-3-((5-(furan-2-yl)thiazol-2-yl)methyl)phenyl)-6-((2-hydroxyethoxy)methyl)tetrahydro-2H-pyran-3,4,5-triol]", "IC50": 30.9}
{"smiles": "O[C@@H]1[C@@H](O)[C@H](c2ccc(Cl)c(Cc3ncc(-c4ccco4)s3)c2)O[C@H](CF)[C@H]1O", "note": "[Example 145, (2S,3R,4R,5S,6S)-2-(4-Chloro-3-((5-(furan-2-yl)thiazol-2-yl)methyl)phenyl)-6-(fluoromethyl)-tetrahydro-2H-pyran-3,4,5-triol]", "IC50": 10.6}
{"smiles": "C[C@H]1O[C@@H](c2ccc(Cl)c(Cc3ncc(-c4ccco4)s3)c2)[C@H](O)[C@@H](O)[C@@H]1O", "note": "[Example 146, (2S,3R,4S,5S,6R)-2-(4-Chloro-3-((5-(furan-2-yl)thiazol-2-yl)methyl)phenyl)-6-methyl-tetrahydro-2H-pyran-3,4,5-triol]", "IC50": 7.01}
{"smiles": "CCOC(=O)OC[C@H]1O[C@@H](c2ccc(Cl)c(Cc3ncc(-c4ccco4)s3)c2)[C@H](O)[C@@H](O)[C@@H]1O", "note": "[Example 160, ((2R,3S,4R,5R,6S)-6-(4-Chloro-3-((5-(furan-2-yl)thiazol-2-yl)methyl)phenyl)-3,4,5-trihydroxytetrahydro-2H-pyran-2-yl)methyl ethyl carbonate]", "IC50": 24}
{"smiles": "CCCCOC(=O)OC[C@H]1O[C@@H](c2ccc(Cl)c(Cc3ncc(-c4ccco4)s3)c2)[C@H](O)[C@@H](O)[C@@H]1O", "note": "[Example 161, Butyl ((2R,3S,4R,5R,6S)-6-(4-chloro-3-((5-(furan-2-yl)thiazol-2-yl)methyl)phenyl)-3,4,5-trihydroxytetrahydro-2H-pyran-2-yl)methyl carbonate]", "IC50": 5.08}
{"smiles": "CC(C)(C)OC(=O)OC[C@H]1O[C@@H](c2ccc(Cl)c(Cc3ncc(-c4ccco4)s3)c2)[C@H](O)[C@@H](O)[C@@H]1O", "note": "[Example 162, tert-Butyl ((2R,3S,4R,5R,6S)-6-(4-chloro-3-((5-(furan-2-yl)thiazol-2-yl)methyl)phenyl)-3,4,5-trihydroxytetrahydro-2H-pyran-2-yl)methyl carbonate]", "IC50": 79.9}
{"smiles": "C=CCOC(=O)OC[C@H]1O[C@@H](c2ccc(Cl)c(Cc3ncc(-c4ccco4)s3)c2)[C@H](O)[C@@H](O)[C@@H]1O", "note": "[Example 163, Allyl ((2R,3S,4R,5R,6S)-6-(4-chloro-3-((5-(furan-2-yl)thiazol-2-yl)methyl)phenyl)-3,4,5-trihydroxytetrahydro-2H-pyran-2-yl)methyl carbonate]", "IC50": 11.4}
{"smiles": "O=C(OCc1ccccc1)OC[C@H]1O[C@@H](c2ccc(Cl)c(Cc3ncc(-c4ccco4)s3)c2)[C@H](O)[C@@H](O)[C@@H]1O", "note": "[Example 164, Benzyl ((2R,3S,4R,5R,6S)-6-(4-chloro-3-((5-(furan-2-yl)thiazol-2-yl)methyl)phenyl)-3,4,5-trihydroxytetrahydro-2H-pyran-2-yl)methyl carbonate]", "IC50": 2.44}
{"smiles": "CCOC(=O)OC[C@H]1O[C@@H](c2ccc(Cl)c(Cc3ncc(-c4ccsc4)s3)c2)[C@H](O)[C@@H](O)[C@@H]1O", "note": "[Example 165, ((2R,3S,4R,5R,6S)-6-(4-Chloro-3-((5-(thiophen-3-yl)thiazol-2-yl)methyl)phenyl)-3,4,5-trihydroxytetrahydro-2H-pyran-2-yl)methyl ethyl carbonate]", "IC50": 7.39}
{"smiles": "OC[C@H]1O[C@@H](c2ccc(Cl)c(Cc3cnc(-c4ccccc4)s3)c2)[C@H](O)[C@@H](O)[C@@H]1O", "note": "[Example 183, (2S,3R,4R,5S,6R)-2-(4-Chloro-3-((2-phenylthiazol-5-yl)methyl)phenyl)-6-(hydroxymethyl)-tetrahydro-2H-pyran-3,4,5-triol]", "IC50": 5.76}
{"smiles": "OC[C@H]1O[C@@H](c2ccc(Cl)c(Cc3cnc(-c4ccco4)s3)c2)[C@H](O)[C@@H](O)[C@@H]1O", "note": "[Example 184, (2S,3R,4R,5S,6R)-2-(4-Chloro-3-((2-(furan-2-yl)thiazol-5-yl)methyl)phenyl)-6-(hydroxymethyl)tetrahydro-2H-pyran-3,4,5-triol]", "IC50": 1.42}
{"smiles": "OC[C@H]1O[C@@H](c2ccc(Cl)c(Cc3cnc(-c4cc5ccccc5o4)s3)c2)[C@H](O)[C@@H](O)[C@@H]1O", "note": "[Example 185, (2S,3R,4R,5S,6R)-2-(3-((2-(Benzofuran-2-yl)thiazol-5-yl)methyl)-4-chlorophenyl)-6-(hydroxymethyl)tetrahydro-2H-pyran-3,4,5-triol]", "IC50": 76.6}
{"smiles": "OC[C@H]1O[C@@H](c2ccc(Cl)c(Cc3cnc(-c4ccoc4)s3)c2)[C@H](O)[C@@H](O)[C@@H]1O", "note": "[Example 186, (2S,3R,4R,5S,6R)-2-(4-Chloro-3-((2-(furan-3-yl)thiazol-5-yl)methyl)phenyl)-6-(hydroxymethyl)tetrahydro-2H-pyran-3,4,5-triol]", "IC50": 4.47}
{"smiles": "OC[C@H]1O[C@@H](c2ccc(Cl)c(Cc3cnc(-c4cccs4)s3)c2)[C@H](O)[C@@H](O)[C@@H]1O", "note": "[Example 187, (2S,3R,4R,5S,6R)-2-(4-Chloro-3-((2-(thiophen-2-yl)thiazol-5-yl)methyl)phenyl)-6-(hydroxymethyl)tetrahydro-2H-pyran-3,4,5-triol]", "IC50": 2.79}
{"smiles": "Cc1ccc(-c2ncc(Cc3cc([C@@H]4O[C@H](CO)[C@@H](O)[C@H](O)[C@H]4O)ccc3Cl)s2)s1", "note": "[Example 188, (2S,3R,4R,5S,6R)-2-(4-Chloro-3-((2-(5-methylthiophen-2-yl)thiazol-5-yl)methyl)phenyl)-6-(hydroxymethyl)tetrahydro-2H-pyran-3,4,5-triol]", "IC50": 10.4}
{"smiles": "OC[C@H]1O[C@@H](c2ccc(Cl)c(Cc3cnc(-c4ccc(Cl)s4)s3)c2)[C@H](O)[C@@H](O)[C@@H]1O", "note": "[Example 189, (2S,3R,4R,5S,6R)-2-(4-Chloro-3-((2-(5-chlorothiophen-2-yl)thiazol-5-yl)methyl)phenyl)-6-(hydroxymethyl)tetrahydro-2H-pyran-3,4,5-triol]", "IC50": 8.64}
